This note sets out measurements from US7041844B2, “Irreversible non-steroidal antagonist compound and its use in the treatment of prostate cancer” (The University Of Tennessee Research Corporation, priority 1996, dated 2006).

One assay concerns the target T1, rat prostate AR (Rattus norvegicus, UniProt P15207).
T1 sequence (P15207 1-902): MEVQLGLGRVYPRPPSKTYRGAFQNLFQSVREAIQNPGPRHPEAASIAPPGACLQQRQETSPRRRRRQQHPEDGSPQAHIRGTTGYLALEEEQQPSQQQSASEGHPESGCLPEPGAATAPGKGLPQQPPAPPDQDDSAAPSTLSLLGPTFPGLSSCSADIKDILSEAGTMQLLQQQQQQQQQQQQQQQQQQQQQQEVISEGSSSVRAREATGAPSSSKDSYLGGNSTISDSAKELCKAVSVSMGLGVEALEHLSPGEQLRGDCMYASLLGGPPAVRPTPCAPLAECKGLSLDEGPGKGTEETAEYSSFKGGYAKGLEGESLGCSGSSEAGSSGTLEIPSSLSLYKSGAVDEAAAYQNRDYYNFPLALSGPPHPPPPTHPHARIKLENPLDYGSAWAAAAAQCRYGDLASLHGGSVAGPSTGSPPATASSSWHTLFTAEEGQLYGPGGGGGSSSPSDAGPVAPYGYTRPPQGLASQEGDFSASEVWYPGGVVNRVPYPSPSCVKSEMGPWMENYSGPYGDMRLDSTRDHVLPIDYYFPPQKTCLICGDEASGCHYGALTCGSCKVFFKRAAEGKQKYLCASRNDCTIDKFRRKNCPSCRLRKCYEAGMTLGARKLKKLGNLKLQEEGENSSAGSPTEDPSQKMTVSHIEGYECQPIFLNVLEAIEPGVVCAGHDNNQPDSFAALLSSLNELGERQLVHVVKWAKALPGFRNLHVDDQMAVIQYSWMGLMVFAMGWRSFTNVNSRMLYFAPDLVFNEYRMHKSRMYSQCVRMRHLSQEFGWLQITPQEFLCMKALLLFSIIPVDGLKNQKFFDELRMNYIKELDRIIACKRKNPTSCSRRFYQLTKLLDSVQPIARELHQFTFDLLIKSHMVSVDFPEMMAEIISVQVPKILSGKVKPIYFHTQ
The experiment in a line: Saturation binding of 3H-MIB in the AR preparation (Scatchard analysis).

The target in another assay is T2, rat ventral prostate AR (Rattus norvegicus, UniProt P15207).
T2 construct: from tissue; host or cells: ventral prostate cytosol of castrated male Sprague-Dawley rats
T2 sequence (P15207 1-902): T1 sequence (P15207 1-902)
The experiment in a line: Competitive displacement of 3H-MIB from AR binding sites. The following applies: comparison of Ki values. How it is done:
Receptor binding studies for the compounds shown in Table 3 were conducted as follows.
1. AR were isolated from rat ventral prostate tissue by differential centrifugation.
2. Samples of the following composition listed in Table 4 were incubated at 4° C. for 18 hours:
Percent Specific Binding=(B/B0)×100
Data were computer fitted to the equation: […]
Equilibrium dissociation constant of each isomer (Ki) was determined using the equation.
AR isolation was performed as follows.
(In a radioligand displacement assay an active substance lowers the binding of a labelled ligand.)

Structures are written as SMILES.

Broadly, the Kd is a measure of binding affinity in units of concentration.

On to `C[C@@H]1CC2=CC(=O)CC[C@@H]2[C@H]2CC[C@@]3(C)[C@@H](CC[C@]3(C)O)[C@@H]21` [MIB, Mibolerone], for which binding on rat prostate AR was put at a Kd of 0.182 nM.

In the case of `O=[N+]([O-])SN=C=S` [S-NT-NCS, S-nitro-thio-isothiocyanate], the “AR binding affinity (result in words)” value at rat ventral prostate AR is given as “close to that of S-Casodex”.

On to `O=C(CCl)NS[N+](=O)[O-]` [S-NT-CAA, S-nitro-thio chloroacetamide], for which the “AR binding affinity (result in words)” value at rat ventral prostate AR is on record as “close to that of S-Casodex”.
